In patent US10059741B2 (priority 2015, dated 2018):
Several values for one entry are separate records, joined by “and”; a condition that tells them apart may be missing. Identical values can stand only once. Like-named read-outs stand apart in the source and are kept apart here. Bridge positions count the residues as written; N and C are the ends. Square brackets hold non-standard residues; d marks the D form. Peptide text beside a SMILES is read from it. * marks the point of attachment. 5FAM = O=C1OC2(c3ccc(O)cc3Oc3cc(O)ccc32)c2ccc(C(=O)*)cc21; S5 = C=CCCC[C@](C)(N)C(=O)O; Nle = CCCC[C@H](N)C(=O)O; Aib = CC(C)(N)C(=O)O; βAla = NCCC(=O)O

How the values were obtained:
H3N2 Perth/16/2009 [1] = test: microbe, parasite or virus in culture; format: cell-based, influenza A virus; conditions: read-out: EC50 (μM) H3N2 Perth/16/2009
H1N1 California/07/2009 [2] = test: microbe, parasite or virus in culture; format: cell-based, influenza A virus
H1N1 California/07/2009 [3] = test: microbe, parasite or virus in culture; format: cell-based, influenza A virus; conditions: read-out: EC50 (μM) H1N1 California/07/2009
H3N2 Perth/16/2009 [4] = test: microbe, parasite or virus in culture; format: cell-based, influenza A virus; conditions: read-out: EC50 (μM) H3N2 Perth/16/2009; remark: listed apart in the source
in vitro = conditions: dog
[5] = read-out: EC50 (μM) H1N1 California/07/2009
[6] = CC50 (μM) H1N1 California/07/2009, Cell cytotoxicity (CC), run with H1N1 California/07/2009
[7] = CC50 (μM) H3N2 Perth/16/2009, Cell cytotoxicity (CC), run with H3N2 Perth/16/2009
[8] = CC50, MDCK cells, run with Influenza A H1N1 California/07/2009, Neutral Red
[9] = CC50, MDCK cells, run with Influenza A H1N1 California/07/2009, Visual

Row | Compound | EC50 (H3N2 Perth/16/2009 [1]) [µM] | EC50 (H1N1 California/07/2009 [2]; [5]) [µM] | EC50 (H1N1 California/07/2009 [3]) [µM] | EC50 (H3N2 Perth/16/2009 [4]) [µM] | CC50 (in vitro; [6]) [µM] | CC50 (in vitro; [7]) [µM] | CC50 (in vitro; [8]) [µM] | CC50 (in vitro; [9]) [µM] | EC50 (H1N1 California/07/2009 [2]; read-out: EC50)
1 | CCCC[C@H](NC(C)=O)C(=O)N[C@@H](CC(=O)O)C(=O)N[C@H](C(=O)N[C@@H](CC(N)=O)C(=O)N[C@@]1(C)CCCC=CCCC[C@@](C)(C(=O)N[C@@H](CC(C)C)C(=O)N[C@@H](CCCCN)C(=O)N[C@@H](C)C(=O)NC(C)(C)C(=O)N[C@@H](C)C(=O)N[C@@H](CCC(N)=O)C(N)=O)NC(=O)[C@H](CC(C)C)NC(=O)[C@H](CC(C)C)NC(=O)[C@H]([C@@H](C)O)NC1=O)C(C)C [SP-1] (Ac-[Nle]DVN[S5]TLL[S5]LKA[Aib]AQ-NH2; staple 5-9) | 25 to 50 | 25 to 50 | > 50 | 25 to 50 | > 100 | > 100 | > 100 | > 100 | 
2 | CCCC[C@H](NC(C)=O)C(=O)N[C@@H](CC(=O)O)C(=O)N[C@H](C(=O)N[C@@H](CC(N)=O)C(=O)N[C@@]1(C)CCCC=CCCC[C@@](C)(C(=O)N[C@@H](CC(C)C)C(=O)N[C@@H](CCCCN)C(=O)N[C@H](C(=O)NC(C)(C)C(=O)N[C@@H](C)C(=O)N[C@@H](C)C(N)=O)C(C)C)NC(=O)[C@H](CC(C)C)NC(=O)[C@H](CC(C)C)NC(=O)[C@H]([C@@H](C)O)NC1=O)C(C)C [SP-2] (Ac-[Nle]DVN[S5]TLL[S5]LKV[Aib]AA-NH2; staple 5-9) | 10 to 25 | > 50 | > 50 | 25 to 50 | > 100 | > 100 | > 100 | > 100 | 51 µM and 32 µM
3 | CCCC[C@H](NC(C)=O)C(=O)N[C@@H](CC(=O)O)C(=O)N[C@H](C(=O)N[C@@H](CC(N)=O)C(=O)N[C@@]1(C)CCCC=CCCC[C@@](C)(C(=O)N[C@@H](CC(C)C)C(=O)N[C@@H](CCCCN)C(=O)N[C@H](C(=O)N2CCC[C@H]2C(=O)NC(C)(C)C(=O)N[C@@H](CCC(N)=O)C(N)=O)C(C)C)NC(=O)[C@H](CC(C)C)NC(=O)[C@H](CC(C)C)NC(=O)[C@H]([C@@H](C)O)NC1=O)C(C)C [SP-3] (Ac-[Nle]DVN[S5]TLL[S5]LKVP[Aib]Q-NH2; staple 5-9) | 25 to 50 | > 50 | > 50 | > 50 | > 100 | > 100 | > 100 | > 100 | > 100 µM and 73 µM
4 | CC(=O)N[C@@H](Cc1ccccc1)C(=O)N[C@@H](CC(=O)O)C(=O)N[C@H](C(=O)N[C@@H](CC(N)=O)C(=O)N[C@@]1(C)CCCC=CCCC[C@@](C)(C(=O)N[C@@H](CC(C)C)C(=O)N[C@@H](CCCCN)C(=O)N[C@H](C(=O)NC(C)(C)C(=O)N[C@@H](C)C(=O)N[C@@H](CCC(N)=O)C(N)=O)C(C)C)NC(=O)[C@H](CC(C)C)NC(=O)[C@H](CC(C)C)NC(=O)[C@H]([C@@H](C)O)NC1=O)C(C)C [SP-4] (Ac-FDVN[S5]TLL[S5]LKV[Aib]AQ-NH2; staple 5-9) | 25 to 50 | > 50 | > 50 | 25 to 50 | > 100 | > 100 | > 100 | > 100 | 
5 | CCCC[C@H](NC(=O)CCNC(=O)c1ccc2c(c1)C(=O)OC21c2ccc(O)cc2Oc2cc(O)ccc21)C(=O)N[C@@H](CC(=O)O)C(=O)N[C@H](C(=O)N[C@@H](CC(N)=O)C(=O)N[C@@]1(C)CCCC=CCCC[C@@](C)(C(=O)N[C@@H](CC(C)C)C(=O)N[C@@H](C)C(=O)N[C@H](C(=O)NC(C)(C)C(=O)N[C@@H](C)C(=O)N[C@@H](CCC(N)=O)C(N)=O)C(C)C)NC(=O)[C@H](CC(C)C)NC(=O)[C@H](CC(C)C)NC(=O)[C@H]([C@@H](C)O)NC1=O)C(C)C [SP-5] ({5FAM-βAla}-[Nle]DVN[S5]TLL[S5]LAV[Aib]AQ-NH2; staple 5-9) |  |  |  |  | > 100 | > 100 | > 100 | > 100 | 
